Data published in paper PMC12061717, “Molecular characterization of a Minus-C odorant-binding protein from Cyrtotrachelus buqueti (Coleoptera: Curculionidae)” (Frontiers in Physiology, 2025).
Where two headings read alike, the source gives them in different places. Each block holds one compound with its values, some of them ahead of it.

Assays:
[1] = target: T1, CbuqOBP1 (Cyrtotrachelus buqueti, UniProt A0A1L3KPS8); assay: Binding of fluorescent probe 1-NPN to CbuqOBP1 (titration, Scatchard plot); details: 2 μM protein titrated with 1-NPN 2 to 40 μM, read-out: K 1-NPN (dissociation constant of CbuqOBP1/1-NPN complex)
Method: (§1) The fluorescence competition binding assays were carried out with a F-7000 fluorescence spectrophotometer (Hitachi, Tokyo, Japan) at room temperature using a 1 cm wide light-path fluorimeter quartz cuvette and 10 nm slits for both excitation and emission. The purified CbuqOBP1 was dissolved in 50 mM Tris–HCl buffer (pH 7.4) to a final concentration of 2 μM, while all ligands used in binding experiments were dissolved in chromatographic methanol to a final concentration of 1 mM.
N-phenyl-1-naphthylamine (1-NPN) (Aladdin Biochemical Technology Co., LTD., Shanghai, China) was used as the fluorescent probe. The probe was excited at 337 nm and emission spectra were recorded between 350 and 550 nm. […] Assuming that 1-NPN binds to the protein at a 1:1 ratio and that the protein was 100% active, a Scatchard plot analysis of the binding data was performed to calculate the dissociation constant (K d) of CbuqOBP1 with 1-NPN.

[2] = target: T1, CbuqOBP1; assay: Fluorescence competition binding assay with 1-NPN as probe; details: for Ki: K i = [IC50]/(1 + [1-NPN]/K 1-NPN), CbuqOBP1 and 1-NPN both 2 μM, pH 7.4
Method: as §1
N-phenyl-1-naphthylamine (1-NPN) (Aladdin Biochemical Technology Co., LTD., Shanghai, China) was used as the fluorescent probe. The probe was excited at 337 nm and emission spectra were recorded between 350 and 550 nm.
Based on the above studies, a total of nine candidate volatiles were selected as test ligands, including eight volatiles emitted by female adults of C. buqueti and the linalool released from the host plant N. affinis (Table 1). All these compounds were purchased from Aladdin Biochemical Technology Co., LTD. (Shanghai, China) with a purity of at least more than 90%. […] Binding data were collected as three independent measurements.

[3] = tested on: Bradysia odoriphaga (Diptera) adults; design: method as in Li L. et al., 2013; Chen et al., 2014; details: ref Li L. et al., 2013; Chen et al., 2014; cited from earlier work
[4] = tested on: C. buqueti adults; design: method as in Cai, 2018; details: previous behavioral studies; ref Cai, 2018; cited from earlier work
[5] = tested on: Xylotrechus rusticus (Coleoptera) adults; design: method as in Li L. et al., 2013; Chen et al., 2014; details: ref Li L. et al., 2013; Chen et al., 2014; cited from earlier work
[6] = recombinant CbuqOBP1 and 1-NPN both 2 μM, 50 mM Tris-HCl pH 7.4, room temperature, read-out: IC50

T1 sequence (A0A1L3KPS8 entry or part of it): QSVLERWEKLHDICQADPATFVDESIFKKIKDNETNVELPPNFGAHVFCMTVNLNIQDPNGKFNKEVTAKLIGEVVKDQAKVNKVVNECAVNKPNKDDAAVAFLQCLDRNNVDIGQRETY

SMILES: c1ccc(Nc2cccc3ccccc23)cc1 [1-NPN, N-phenyl-1-naphthylamine]
- Kd [1]: 24.2 µM

SMILES: C=C(C)[C@H]1CC=C(C)CC1 [(+)-Limonene]
- IC50 [2]: 18.8 µM

SMILES: c1ccc2scnc2c1 [Benzothiazole]
- attractiveness to adults [3]: highly attractive
- attractant for adults [4]: efficient attractants
- IC50 [2]: 12 µM
- attractiveness to adults [5]: highly attractive

SMILES: C[C@@H]1CC[C@H]2C(C)(C)[C@H]3C[C@@]12CC[C@@]3(C)O [Cedrol]
- IC50 [2]: 40.3 µM

- Ki [2]: 19.5 µM
- IC50 [2, 6]: 21 µM
SMILES: CCCCCC(=O)OCC [Ethyl hexanoate]

SMILES: C=CC(C)(O)CCC=C(C)C (stereo not shown) [Linalool]
- IC50 [2]: 14.5 µM

SMILES: Cc1cccc(C)c1 [M-xylene]
- IC50 [2]: 36 µM

SMILES: Oc1ccccc1 [Phenol]
- attractant for adults [4]: efficient attractants
- IC50 [2]: 11.4 µM

SMILES: C=Cc1ccccc1 [Styrene]
- IC50 [2]: 22.1 µM

- Ki [2]: 22.4 µM
- IC50 [2, 6]: 24.3 µM
SMILES: CCCC/C=C/C=C/C=O [trans,trans-2,4-Nonadienal]
